Experimental data as given in PMC2857986 (Journal of the American Chemical Society, 2010).

Assay: Gel formation and CD of expected cleavage fragments
Type: physicochemical

## KSLSLS [MDP4a]
Phosphate buffer, physiological pH, in words
  Gel formation / self-assembly: no longer able to assemble and form insoluble aggregates
See supporting information
  CD spectrum (secondary structure): simple random coil signature
